Results reported in paper PMC7956476, “Quinoline Functionalized Schiff Base Silver (I) Complexes: Interactions with Biomolecules and In Vitro Cytotoxicity, Antioxidant and Antimicrobial Activities” (Molecules, 2021).

Columns and labels:
[1] = test system: CT-DNA-EB adduct; experiment: Fluorescence competitive displacement of ethidium bromide from CT-DNA; format: binding, calf; conditions: for CT-DNA-EB-Complex Ksv (M^−1) × 10^4: Stern–Volmer quenching constant, 25 °C; for CT-DNA-EB-Complex Kq (M^−1S^−1) × 10^12: bimolecular quenching constant, Ksv = Kqτo, τo 10^−8 s; for CT-DNA-EB-Complex Kbin (M^−1) × 10^5: binding constant from double-logarithmic plot
Description: The Stern–Volmer plot approach was used based on the fact that the Stern–Volmer plots for Q1–Q15 (Figure 5c), were linear an indication of only one mechanism for the quenching fluorescence, i.e., either dynamic or static. […] (1) Ksv=Kqτo where Ksv, Kq, and τo represent Stern–Volmer quenching constant, bimolecular quenching constant, and an average lifetime of the fluorophore in the absence of the quencher, respectively. τₒ normally takes about 10^−8 s in biomacromolecules.
The double-logarithmic Equation (2) was used in determining the binding constant of complexes Q1–Q15 and CT-DNA. (2) logFo−F/F=logKb+n logQ
A competitive displacement study was carried out using fluorescence spectroscopy between CT-DNA pre-treated with ethidium bromide (EB) and complexes Q1–Q15 to establish the complexes′ actual mode of binding to CT-DNA. […] The competitive luminescence displacement assay was done using a modified method. Pre-treated 15 µM solution of EB with 15 µM of CT-DNA was prepared in a phosphate buffer of pH 7.2 and left to equilibrate for 30 min. Keeping CT-DNA-EB concentrations constant, different concentrations (0–20 µM) of the complexes were added at 8 min incubation interval at room temperature. The fluorescence quenching ability of CT-DNA bound EB by the complexes were recorded in the wavelength range of 530–700 nm with an excitation wavelength at 525 nm at 25 °C. (6) Fo/F=1+KSVQ=1+KqτoQ
A Stern–Volmer (Equation (6)) was used to evaluate the CT-DNA-EB fluorescence quenching of the complexes. Where Fo and F denote the relative fluorescence intensities of CT-DNA in the absence and presence of the quencher, Ksv, Stern–Volmer quenching constant, [Q], quencher concentration, Kq, bimolecular quenching constant and τo, average lifetime of the fluorophore in the absence of the quencher which is typically equal to 10^−8 s in biomacromolecules.

[2] = target: bovine serum albumin (BSA) (Bos taurus, UniProt P02769); experiment: Albumin binding by absorption spectroscopy titration
Chain of bovine serum albumin (BSA) (P02769 25-607): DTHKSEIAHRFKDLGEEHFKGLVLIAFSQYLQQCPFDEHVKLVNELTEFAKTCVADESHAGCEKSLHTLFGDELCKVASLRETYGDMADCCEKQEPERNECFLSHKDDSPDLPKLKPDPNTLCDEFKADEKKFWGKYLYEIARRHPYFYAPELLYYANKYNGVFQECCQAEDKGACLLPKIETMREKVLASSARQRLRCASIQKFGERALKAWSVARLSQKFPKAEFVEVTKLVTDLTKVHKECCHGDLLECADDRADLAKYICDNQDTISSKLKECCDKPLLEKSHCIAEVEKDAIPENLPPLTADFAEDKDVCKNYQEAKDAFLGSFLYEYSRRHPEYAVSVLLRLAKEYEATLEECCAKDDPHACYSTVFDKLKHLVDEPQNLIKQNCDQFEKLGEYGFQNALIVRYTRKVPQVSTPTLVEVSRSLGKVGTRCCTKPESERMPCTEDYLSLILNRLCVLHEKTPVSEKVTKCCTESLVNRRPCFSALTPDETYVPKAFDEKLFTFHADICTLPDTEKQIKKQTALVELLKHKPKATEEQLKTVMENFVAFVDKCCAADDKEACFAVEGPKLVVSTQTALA
Description: Bovine serum albumin (BSA) was used as the protein standard in this study because of its close resemblance to human serum albumin (HSA), its stability, high solubility, neutrality in many biochemical reactions and low cost. In protein binding study, absorption spectroscopy titration is a known method used in studying the conformational changes in proteins, and this protein is characterized by an intense absorbance peak at 280 nm depicting the microenvironment around tyrosine and tryptophan residue polarity.
The absorbance assay of albumin binding is a very simple method used in identifying the conformational changes in protein. […] A stock solution of bovine serum albumin (BSA) was prepared by dissolving an appropriate amount of BSA in phosphate buffer saline solution (pH 7.2) under constant stirring for 1 h at 25 °C. It was kept at 4 °C and used within four days. […] The stock solution of the complex was prepared by dissolving 1 mmol of the complexes in DMSO. The absorption titration assay was done by adding different concentrations (0–10 µM) of the complexes to a constant BSA concentration (6 µM). The sample solution was incubated after each addition of the concentrations for 10 min at 25 °C before recording the absorbance at λmax 280 nm.

[3] = Ferric reducing antioxidant power (FRAP) assay; format: biochemical; conditions: done in triplicate
Description: Antioxidants are important in protecting the human body against damage by reactive oxygen species (ROS). Accumulation of ROS in the cells may lead to damage of the DNA, RNA, and proteins which subsequently leads to several physiological disorders such as cardiovascular disease, diabetes, rheumatism, atherosclerosis, cancer, aging and cell death. […] The free radical scavenging ability of all ligands and complexes in this study were investigated using ferric reducing antioxidant power (FRAP). In antioxidant studies, FRAP assay is often preferred because it is simple, fast, economical, and direct in antioxidant measurement. FRAP assay is based on the electron-donating ability of an antioxidant compound. This involves the reduction of a colorless Fe^3+ tripyridyltriazine complex (Fe^3+ (TPTZ)) to an intense blue-colored Fe^2+ tripyridyltriazine complex (Fe^2+ (TPTZ)) by the electron-donating antioxidants at low pH [69]. The reducing power is to determine the reductive ability of the test compounds.
Antioxidant activity studies of L1–L5 and Q1–Q15 were done using ferric reducing antioxidant power (FRAP) assay. The ferric reducing antioxidant power assay is often used to evaluate the ability of an antioxidant to donate an electron. […] The resulting mixture was incubated at 50 °C for 20 min, and 2.5 mL of 10% trichloroacetic acid was added to acidify the mixture. After that, 1 mL of the acidified mixture was added to 1 mL of distilled water and 0.5 mL of 0.1% FeCl3. The absorbance of the resulting solution was then measured at 700 nm. The antioxidant power of the compounds was expressed as a percentage of ferric reducing antioxidant power Ascorbic acid equivalent, as shown in Equation (4). (4) % FRAP =Absorbance of Absorbance of Sample/Absorbance of Ascorbic Acid ×100

[4] = test system: calf thymus DNA (CT-DNA); experiment: CT-DNA electronic absorption titration (Wolfe–Shimer); format: binding; conditions: intrinsic binding constant, absorption titration, PBS pH 7.2
Method: The interaction of the L1–L5 and complexes Q1–Q15 with calf thymus-DNA was carried out in a Phosphate buffer saline solution pH 7.2 stored at 4 °C. The DNA stock solution was prepared by dissolving CT-DNA sodium salt in Phosphate buffer saline solution with continuous stirring overnight. It was filtered and stored at 4 °C and used within four days. […] A fixed amount of the L1–L5 and complexes Q1–Q15 (50 µM) were prepared by dissolving an appropriate amount in DMSO. […] Therefore, in all the experimental of the interaction of L1–L5 and complexes Q1–Q15 with biomolecules, the final concentration of DMSO in the incubation mixture was ~2% (v/v).
The binding modes of L1–L5 and complexes Q1–Q15 to CT-DNA were characterized through electronic absorption titration by varying concentrations of CT-DNA (0–30 µM) in phosphate buffer saline solution against fixed concentrations (20 µM) of L1–L5 and complexes Q1–Q15. […] The absorbance of CT-DNA is cancelled by adding equivalent amounts of CT-DNA to both the tested compounds and the reference solutions.

[5] = test system: Escherichia coli ATCC 25922; experiment: Minimum inhibitory concentration (MIC), spotting on Müeller–Hinton agar; format: cell-based; conditions: Gram − Ve; E. coli; 37 °C, 18 h
Method: (§1) Sterilized Nutrient agar medium was first prepared by dissolving 38 g of Müeller–Hinton agar (MHA) (Biolab, Midrand, Africa) in distilled water (1 L). […] The cooled Agar medium was poured in Petri dishes while ensuring a uniform 4 mm depth of the medium and cooling further to ambient temperature.
(§2) These bacteria were inoculated in a sterilized Nutrient Broth (NB) (Biolab, Midrand, Africa) through streak plate technique and incubated at 37 °C for 18 h. The nutrient broth was sterilized by dissolving 1.3 g in distilled water (100 mL). Ca. 10 mL of the nutrient broth was transferred into a cotton wool-plugged test tubes and wrapped with an aluminium foil. […] Following this was the isolation of a single colony of the bacteria and inoculated into a 10 mL sterile NB which was then incubated in a shaking incubator at 37 °C for 18 h. Each of the bacteria strain concentrations was adjusted with sterile distilled water to get a final concentration of 1.5 × 10^8 cfu/mL, i.e., 0.5 Mc Farland’s Standard using a densitometer (Mc Farland Latvia). The bacteria were lawn inoculated on the set MHA Petri dishes using a sterile cotton swab. Screening of L1–L5 and Q1–Q15 for antibacterial activity was first carried out by spotting 5 µL of their solution (prepared from the dissolution of 1000 µg of the L1–L5 and Q1–Q15 in 1 mL dimethyl sulfoxide (DMSO)) on an MHA petri dish and incubated at 37 °C for 18 h. The antibacterial activity was determined by looking out for a clear zone at the spotting point.

[6] = test system: Staphylococcus aureus ATCC 700699 (methicillin-resistant); experiment: as above; format: cell-based; conditions: Gram + Ve; methicillin-resistant S. aureus; 37 °C, 18 h
Method: as §1, §2

[7] = test system: Staphylococcus aureus ATCC 25923; experiment: as above; format: cell-based; conditions: Gram + Ve; S. aureus; 37 °C, 18 h
Method: as §1, §2

[8] = test system: Salmonella typhimurium ATCC 14026; experiment: as above; format: cell-based; conditions: Gram − Ve; S. typhi; 37 °C, 18 h
Method: as §1, §2

[9] = test system: Pseudomonas aeruginosa ATCC 27853; experiment: as above; format: cell-based; conditions: Gram − Ve; P. aeruginosa; 37 °C, 18 h
Method: as §1, §2

[10] = test system: Klebsiella pneumoniae ATCC 31488; experiment: as above; format: cell-based; conditions: versus the standard (0.8 µg/mL)
Method: as §1, §2

Compound | CT-DNA-EB-Complex Ksv (M^−1) × 10^4 ([1]; EB displacement) | CT-DNA-EB-Complex Kq (M^−1S^−1) × 10^12 [1] | CT-DNA-EB-Complex Kbin (M^−1) × 10^5 [1] | Protein-Complex Kb (M^−1) × 10^4 [2] | Antioxidant (IC50 mg/mL) FRAP [3] [mg/mL] | CT-DNA-Cmp. Kb (M^−1) × 10^5 [4] | Minimum inhibitory concentration, EC [5] [µg/mL] | Minimum inhibitory concentration, MRSA [6] [µg/mL] | Minimum inhibitory concentration, SA [7] [µg/mL] | Minimum inhibitory concentration, ST [8] [µg/mL] | Minimum inhibitory concentration, PA [9] [µg/mL] | activity times higher than the standard against K. pneumoniae [10] [times] | binding constant (Kbin) to CT-DNA ([1]; as given in the text, EB displacement, double-logarithmic plot) [M⁻¹]
Clc1ccc(N=Cc2ccc3ccccc3n2)cc1.Clc1ccc(N=Cc2ccc3ccccc3n2)cc1.O=[N+]([O-])[O-].[Ag+] [Complex Q3, [Ag(L3)2]NO3] | 3.93 (M^−1) × 10^4 | 3.93 (M^−1S^−1) × 10^12 | 9.17 (M^−1) × 10^5 | 5.11 (M^−1) × 10^4 | 4.75 ± 0.0042 | 15.7 (M^−1) × 10^5 | 25 | 50 | 50 | 50 | 12.5 |  | 
C(=NCc1cccs1)c1ccc2ccccc2n1.C(=NCc1cccs1)c1ccc2ccccc2n1.O=[N+]([O-])[O-].[Ag+] [Complex Q5, [Ag(L5)2]NO3] | 2.31 (M^−1) × 10^4 | 2.31 (M^−1S^−1) × 10^12 | 1.03 (M^−1) × 10^5 | 5.95 (M^−1) × 10^4 | 2.04 ± 0.0032 | 4.00 (M^−1) × 10^5 | 1.6 | 100 | 50 | 12.5 |  | 32 | 
C(=NCc1cccs1)c1ccc2ccccc2n1.C(=NCc1cccs1)c1ccc2ccccc2n1.[Ag+].[O-][Cl+3]([O-])([O-])[O-] [Complex Q10, [Ag(L5)2]ClO4] | 2.98 (M^−1) × 10^4 | 2.98 (M^−1S^−1) × 10^12 | 9.61 (M^−1) × 10^5 | 8.01 (M^−1) × 10^4 | 0.98 ± 0.055 | 5.00 (M^−1) × 10^5 | 6.25 | 1000 | 25 | 100 | 1.6 |  | 961000
Clc1ccc(N=Cc2ccc3ccccc3n2)cc1.Clc1ccc(N=Cc2ccc3ccccc3n2)cc1.O=S(=O)([O-])C(F)(F)F.[Ag+] [Complex Q13, [Ag(L3)2]CF3SO3] | 3.33 (M^−1) × 10^4 | 3.33 (M^−1S^−1) × 10^12 | 5.74 (M^−1) × 10^5 | 2.89 (M^−1) × 10^4 | 2.22 ± 0.0055 | 4.29 (M^−1) × 10^5 | 25 | 50 | 25 | 50 | 12.5 |  | 
Cc1ccc(N=Cc2ccc3ccccc3n2)cc1.Cc1ccc(N=Cc2ccc3ccccc3n2)cc1.O=S(=O)([O-])C(F)(F)F.[Ag+] [Complex Q14, [Ag(L4)2]CF3SO3] | 2.98 (M^−1) × 10^4 | 2.98 (M^−1S^−1) × 10^12 | 5.31 (M^−1) × 10^5 | 7.50 (M^−1) × 10^4 | 3.55 ± 0.022 | 3.33 (M^−1) × 10^5 | 25 | 1000 | 50 | 50 | ~0.8 |  | 
